Measured values taken from ChEMBL document CHEMBL1133237, “Enhanced binding of aminoglycoside dimers to a "dimerized" A-site 16S rRNA construct” (Bioorg Med Chem Lett, 2000).

What was measured:
[1] = target: Nucleic Acid; test: Dissociation constant towards 16S rRNA construct A; assay type: nucleic-acid assay
[2] = target: Nucleic Acid; test: Dissociation constant towards 16S rRNA construct B; assay type: nucleic-acid assay

SMILES | Kd [1] [nM] | Kd [2] [nM]
NC[C@@H]1O[C@H](O[C@H]2[C@@H](O)[C@H](O[C@@H]3[C@@H](O)[C@H](N)C[C@H](N)[C@H]3O[C@H]3O[C@H](CN)[C@@H](O)[C@H](O)[C@H]3N)O[C@@H]2CO)[C@H](N)[C@@H](O)[C@@H]1O [FRAMYCETIN] | 440 | 380
NC[C@H]1O[C@H](O[C@H]2[C@H](O)[C@@H](O[C@H]3O[C@H](CSCCOCCSSCCOCCSC[C@H]4O[C@H](O[C@@H]5[C@@H](O)[C@H](O[C@H]6O[C@H](CN)[C@@H](O)C[C@H]6N)[C@@H](N)C[C@H]5N)[C@H](O)[C@@H](N)[C@@H]4O)[C@@H](O)[C@H](N)[C@H]3O)[C@H](N)C[C@@H]2N)[C@H](N)C[C@@H]1O [Tobramycin-Tobramycin] | 1780 | 1810
NC[C@H]1O[C@H](O[C@H]2[C@H](O)[C@@H](O[C@H]3O[C@H](CO)[C@@H](O)[C@H](N)[C@H]3O)[C@H](N)C[C@@H]2N)[C@H](N)C[C@@H]1O [TOBRAMYCIN] | 2110 | 1680

Next, values leading:

Kd [1] [nM] | Kd [2] [nM] | SMILES
410 | 290 | NCC1O[C@H](O[C@H]2[C@@H](O)[C@H](O[C@H]3[C@H](O)[C@@H](N)C[C@@H](N)[C@@H]3O[C@H]3O[C@H](CN)[C@@H](O)[C@H](O)[C@H]3N)O[C@@H]2CSCCOCCSSCCOCCSC[C@H]2O[C@H](O[C@@H]3[C@@H](O)[C@H](O[C@H]4O[C@H](CN)[C@@H](O)C[C@H]4N)[C@@H](N)C[C@H]3N)[C@H](O)[C@@H](N)[C@@H]2O)[C@H](N)[C@@H](O)[C@@H]1O (stereo not given in full)
320 | 20 | NCC1O[C@H](O[C@H]2[C@@H](O)[C@H](O[C@H]3[C@H](O)[C@@H](N)C[C@@H](N)[C@@H]3O[C@H]3O[C@H](CN)[C@@H](O)[C@H](O)[C@H]3N)O[C@@H]2CSCCOCCSSCCOCCSC[C@H]2O[C@@H](O[C@H]3[C@H](O)[C@@H](N)C[C@@H](N)[C@@H]3O[C@H]3O[C@H](CN)[C@@H](O)[C@H](O)[C@H]3N)[C@H](O)[C@@H]2O[C@@H]2OC(CN)[C@H](O)[C@@H](O)[C@@H]2N)[C@H](N)[C@@H](O)[C@@H]1O (stereo not given in full)
